The results in this text go back to patent US20240247015A1, “PHOSPHORUS DERIVATIVES AS NOVEL SOS1 INHIBITORS” (BAYER AKTIENGESELLSCHAFT, priority 2021, published 2024).

In the assay the target is interaction of human SOS1 (SOS1) with human K-RasG12C (Homo sapiens (Human), UniProt Q07889). As to the kind of experiment: Biochemical assay: hK-RasG12C interaction assay with hSOS1 (HTRF). Format: binding. Conditions: GST-hK-RasG12C with His-hSOS1, 60 min incubation at 20° C., mean, read-out: K-RasG12C - SOS interaction assay IC50 (mean). The protocol:
Biochemical Assay: hK-RasG12C Interaction Assay with hSOS1 This assay quantifies the equilibrium interaction of human SOS1 (SOS1) with human K-Ras^G12^C (K-RasG12C). Detection of the interaction is achieved by measuring homogenous time-resolved fluorescence resonance energy transfer (HTRF) from antiGST-Europium (FRET donor) bound to GST-K-RasG12C to anti-6His-XL665 bound to His-tagged hSOS1 (FRET-acceptor). The assay buffer containes 5 mM HEPES pH 7.4 (Applichem), 150 mM NaCl (Sigma), […] (Promega), 1 mM DTT (Thermofisher), 0.05% BSA Fraction V, pH 7.0, (ICN Biomedicals), 0.0025% (v/v) Igepal (Sigma) and 100 mM KF (FLUKA). The expression and purification of N-terminally GST-tagged human K-RasG12C (termed GST-hK-RasG12C) and N-terminally His-tagged human SOS1 (termed His10-hSOS1) is described in WO 2019/201848, page 220 line 12-34 and page 222, line 13-25 (expression) and page 222, line 26 to page 223, line 17 (purification). Concentrations of protein batches used are optimized to be within the linear range of the HTRF signal. A Ras working solution is prepared in assay buffer containing typically 10 nM GST-hK-RasG12C and 2 nM antiGST-Eu(K) (Cisbio, France). A SOS1 working solution is prepared in assay buffer containing typically 20 nM His-hSOS1 and 10 nM anti-6His-XL665 (Cisbio, France). An inhibitor control solution is prepared in assay buffer containing nM anti-6His-XL665 without SOS1. Fifty nl of a 100-fold concentrated solution of the test compound in DMSO are transferred into a black microtiter test plate (384 or 1536, Greiner Bio-One, Germany). For this, either a Hummingbird liquid handler (Digilab, MA, USA) or an Echo acoustic system (Labcyte, CA, USA) is used. All steps of the assay are performed at 20° C. A volume of 2.5 μl of the Ras working solution is added to all wells of the test plate using a Multidrop dispenser (Thermo Labsystems). After 2 min preincubation, 2.5 μl of the SOS1 working solution are added to all wells except for those wells at the side of the test plate that are subsequently filled with 2.5 μl of the inhibitor control solution. After 60 min incubation the fluorescence is measured with a Pherastar (BMG, Germany) using the HTRF module (excitation 337 nm, emission 1: 620 nm, emission 2: 665 nm). The ratiometric data (emission 2 divided by emission 1) are normalized using the controls (DMSO=0% inhibition, inhibition control wells with inhibitor control solution=100% inhibition). Compounds are tested in duplicates at up to 11 concentrations (for 20 μM, 5,7 μM, 1,6 μM, 0.47 μM, 0.13 μM, 38 nM, 11 nM, 3.1 nM, 0.89 nM, 0.25 nM and 0.073 nM). IC50 values are calculated by 4-Parameter fitting using a commercial software package (Genedata Screener, Switzerland).

Sequence of interaction of human SOS1 (SOS1) with human K-RasG12C (Q07889 564-1049 limits assumed): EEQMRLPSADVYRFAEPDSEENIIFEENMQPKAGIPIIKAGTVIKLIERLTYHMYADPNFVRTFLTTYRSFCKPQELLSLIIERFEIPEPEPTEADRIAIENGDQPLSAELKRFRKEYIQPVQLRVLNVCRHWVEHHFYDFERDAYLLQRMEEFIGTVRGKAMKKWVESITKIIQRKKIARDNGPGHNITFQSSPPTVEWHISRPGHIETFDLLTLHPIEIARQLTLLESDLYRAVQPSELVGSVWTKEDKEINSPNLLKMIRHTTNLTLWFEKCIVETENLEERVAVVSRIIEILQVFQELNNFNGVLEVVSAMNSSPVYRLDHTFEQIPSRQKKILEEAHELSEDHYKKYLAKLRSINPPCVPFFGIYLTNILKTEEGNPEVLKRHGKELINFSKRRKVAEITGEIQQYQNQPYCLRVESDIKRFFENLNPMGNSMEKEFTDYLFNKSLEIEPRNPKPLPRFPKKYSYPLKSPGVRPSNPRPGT

As to `CCCCC(C)(O)C(F)(F)c1cccc([C@@H](C)Nc2nc(C)nc3cnc(P(C)(C)=O)cc23)c1F` (mixture of isomers) [Example 23, (2RS)-1-{3-[(1R)-1-{[6-(dimethylphosphoryl)-2-methylpyrido[3,4-d]pyrimidin-4-yl]amino}ethyl]-2-fluorophenyl}-1,1-difluoro-2-methylhexan-2-ol], the IC50 worked out at 0.0124 µM.

For `CCc1nc(P(C)(C)=O)cc2c(N[C@H](C)c3cccc(C(F)(F)C(O)CC)c3F)nc(C)nc12` (mixture of isomers) [Example 38, (2RS)-1-{3-[(1R)-1-{[6-(dimethylphosphoryl)-8-ethyl-2-methylpyrido[3,4-d]pyrimidin-4-yl]amino}ethyl]-2-fluorophenyl}-1,1-difluorobutan-2-ol], the IC50 was determined as 0.0107 µM. Under `Cc1nc(N[C@H](C)c2cccc(C(F)(F)[C@@H](C)O)c2F)c2cc(P(C)(C)=O)ncc2n1` (relative stereo) [Example 113, (2R*)-1-{3-[(1R)-1-{[6-(dimethylphosphoryl)-2-methylpyrido[3,4-d]pyrimidin-4-yl]amino}ethyl]-2-fluorophenyl}-1,1-difluoropropan-2-ol] stands 0.00785 µM; under `Cc1nc(N[C@H](C)c2cccc(C(F)(F)[C@H](O)C(C)(C)C)c2F)c2cc(P(C)(C)=O)ncc2n1` (relative stereo) [Example 137, (2R*)-1-{3-[(1R)-1-{[6-(dimethylphosphoryl)-2-methylpyrido[3,4-d]pyrimidin-4-yl]amino}ethyl]-2-fluorophenyl}-1,1-difluoro-3,3-dimethylbutan-2-ol], 0.00404 µM. With `Cc1nc(NC(C)c2ccnc(C(F)(F)F)c2)c2cc(P(C)(C)=O)ncc2n1` (single isomer, unassigned) [Example 24, 6-(dimethylphosphoryl)-2-methyl-N-{1-[2-(trifluoromethyl)pyridin-4-yl]ethyl}pyrido[3,4-d]pyrimidin-4-amine], the IC50 was more than 20 µM. Under `Cc1nc(NC(C)c2ccnc(C(F)(F)F)c2)c2cc(P(C)(C)=O)ncc2n1` (single isomer, unassigned) [Example 25, 6-(dimethylphosphoryl)-2-methyl-N-{1-[2-(trifluoromethyl)pyridin-4-yl]ethyl}pyrido[3,4-d]pyrimidin-4-amine] stands 4.85 µM; under `CCC(O)C(F)(F)c1cccc([C@@H](C)Nc2nc(C)nc3cnc(P(C)(C)=O)cc23)c1F` (single isomer, unassigned) [Example 65, (2R*)-1-{3-[(1R)-1-{[6-(dimethylphosphoryl)-2-methylpyrido[3,4-d]pyrimidin-4-yl]amino}ethyl]-2-fluorophenyl}-1,1-difluorobutan-2-ol], 0.0105 µM. Under `Cc1nc(N[C@H](C)c2cccc(C(F)(F)C(O)C(C)C)c2F)c2cc(P(C)(C)=O)ncc2n1` (single isomer, unassigned) [Example 66, (2R*)-1-{3-[(1R)-1-{[6-(dimethylphosphoryl)-2-methylpyrido[3,4-d]pyrimidin-4-yl]amino}ethyl]-2-fluorophenyl}-1,1-difluoro-3-methylbutan-2-ol] stands 0.0251 µM; under `CCP(C)(=O)c1cc2c(N[C@H](C)c3cccc(C(F)(F)C(C)(C)O)c3F)nc(C)nc2cn1` (single isomer, unassigned) [Example 68], 0.0282 µM; under `CCP(C)(=O)c1cc2c(N[C@H](C)c3cccc(C(F)(F)C(C)(C)O)c3F)nc(C)nc2cn1` (single isomer, unassigned) [Example 69], 0.0195 µM. The value for `Cc1nc(N[C@H](C)c2cccc(C(F)(F)C(C)(C)O)c2F)c2cc(P(C)(=O)C(C)C)ncc2n1` (single isomer, unassigned) [Example 71] was 0.0354 µM; that for `Cc1nc(N[C@H](C)c2cccc(C(F)(F)C(C)(C)O)c2F)c2cc(P(C)(=O)C(C)C)ncc2n1` (single isomer, unassigned) [Example 72] was 0.0243 µM; that for `CCP(C)(=O)c1cc2c(N[C@H](C)c3cccc(C(F)(F)C(C)O)c3F)nc(C)nc2cn1` (single isomer, unassigned) [Example 73, (2R*)-1-{3-[(1R)-1-{{6-[ethyl(methyl)phosphoryl]-2-methylpyrido[3,4-d]pyrimidin-4-yl}amino)ethyl]-2-fluorophenyl}-1,1-difluoropropan-2-ol] was 0.0113 µM.

On to `CCP(C)(=O)c1cc2c(N[C@H](C)c3cccc(C(F)(F)C(C)O)c3F)nc(C)nc2cn1` (single isomer, unassigned) [Example 74, (2R*)-1-{3-[(1R)-1-{{6-[ethyl(methyl)phosphoryl]-2-methylpyrido[3,4-d]pyrimidin-4-yl}amino)ethyl]-2-fluorophenyl}-1,1-difluoropropan-2-ol], for which the IC50 was determined as 0.0246 µM. Under `CCP(C)(=O)c1cc2c(N[C@H](C)c3cccc(C(F)(F)C(C)O)c3F)nc(C)nc2cn1` (single isomer, unassigned) [Example 75, (2R*)-1-{3-[(1R)-1-{{6-[ethyl(methyl)phosphoryl]-2-methylpyrido[3,4-d]pyrimidin-4-yl}amino)ethyl]-2-fluorophenyl}-1,1-difluoropropan-2-ol] stands 0.0153 µM; under `CCP(C)(=O)c1cc2c(N[C@H](C)c3cccc(C(F)(F)C(C)O)c3F)nc(C)nc2cn1` (single isomer, unassigned) [Example 76, (2R*)-1-{3-[(1R)-1-({6-[ethyl(methyl)phosphoryl]-2-methylpyrido[3,4-d]pyrimidin-4-yl}amino)ethyl]-2-fluorophenyl}-1,1-difluoropropan-2-ol], 0.0213 µM.

With `CCP(C)(=O)c1cc2c(N[C@H](C)c3cccc(C(F)(F)C(C)O)c3F)nc(C)nc2cn1` (single isomer, unassigned) [Example 77, (2R*)-1-{3-[(1R)-1-{{6-[ethyl(methyl)phosphoryl]-2-methylpyrido[3,4-d]pyrimidin-4-yl}amino)ethyl]-2-fluorophenyl}-1,1-difluoropropan-2-ol], the IC50 is 0.0178 µM. The value for `CCP(C)(=O)c1cc2c(N[C@H](C)c3cccc(C(F)(F)C(C)O)c3F)nc(C)nc2cn1` (single isomer, unassigned) [Example 78, (2R*)-1-{3-[(1R)-1-{{6-[ethyl(methyl)phosphoryl]-2-methylpyrido[3,4-d]pyrimidin-4-yl}amino)ethyl]-2-fluorophenyl}-1,1-difluoropropan-2-ol] was 0.0218 µM; that for `Cc1nc(N[C@H](C)c2cccc(C(F)(F)C(C)O)c2F)c2cc(P(C)(=O)C(C)C)ncc2n1` (single isomer, unassigned) [Example 79, (2R*)-1,1-difluoro-1-{2-fluoro-3-[(1R)-1-({2-methyl-6-[methyl(propan-2-yl)phosphoryl]pyrido[3,4-d]pyrimidin-4-yl}amino)ethyl]phenyl}propan-2-ol] was 0.0123 µM; that for `Cc1nc(N[C@H](C)c2cccc(C(F)(F)C(C)O)c2F)c2cc(P(C)(=O)C(C)C)ncc2n1` (single isomer, unassigned) [Example 80, (2R*)-1,1-difluoro-1-{2-fluoro-3-[(1R)-1-({2-methyl-6-[methyl(propan-2-yl)phosphoryl]pyrido[3,4-d]pyrimidin-4-yl}amino)ethyl]phenyl}propan-2-ol] was 0.00588 µM. The value for `Cc1nc(N[C@H](C)c2cccc(C(F)(F)C(C)O)c2F)c2cc(P(C)(=O)C(C)C)ncc2n1` (single isomer, unassigned) [Example 81, (2R*)-1,1-difluoro-1-{2-fluoro-3-[(1R)-1-({2-methyl-6-[methyl(propan-2-yl)phosphoryl]pyrido[3,4-d]pyrimidin-4-yl}amino)ethyl]phenyl}propan-2-ol] was 0.0102 µM; that for `Cc1nc(N[C@H](C)c2cccc(C(F)(F)C(C)O)c2F)c2cc(P(C)(=O)C(C)C)ncc2n1` (single isomer, unassigned) [Example 82, (2R*)-1,1-difluoro-1-{2-fluoro-3-[(1R)-1-({2-methyl-6-[methyl(propan-2-yl)phosphoryl]pyrido[3,4-d]pyrimidin-4-yl}amino)ethyl]phenyl}propan-2-ol] was 0.0245 µM.

The IC50 is the concentration that inhibits the measured activity by half.
